# Columns and labels:
# KRAS G12C-BRAF complex = KRAS G12C-BRAF complex (Homo sapiens (Human), UniProt P01116+P62937, G12C); experiment: KRAS-BRAF with CYPA (500 nM) interaction assay (TR-FRET, Example 136); type: biochemical; details: KRAS G12C-BRAF disruption
# [1] = tested on: NCI-H358 cells (KRAS G12C); experiment: Cell viability assay (Cell Counting Kit-8, 3-day); type: cell-based, human; details: Homo sapiens, NCI-H358, 72 h, NCI-H358, 72 hrs incubation
# Procedure, shortened: (§1)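 Seed NCI-H358 5,000/well, AGS and SW620 2,000/well; overnight. Compound, 0.5% DMSO final, 72 hrs. CCK-8 2 hrs, OD450–OD650. IC50: 4-parameter fit.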
# AGS cells (KRAS G12D) = experiment: Cell viability assay (Cell Counting Kit-8, 3-day); type: cell-based, human; details: Homo sapiens, 72 h, 72 hrs incubation
# Procedure, shortened: as §1
# SW620 cells (KRAS G12V) = experiment: Cell viability assay (Cell Counting Kit-8, 3-day); type: cell-based, human; details: Homo sapiens, SW-620; SW620, 72 hrs incubation
# Procedure, shortened: as §1
# [2] = tested on: phosphorylation of ERK, KRAS G12D in AGS cells; experiment: pERK inhibition assay; type: cell-based; details: Homo sapiens, AGS, 4 h
# Procedure, shortened: (§2)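 NCI-H358 (KRAS G12C), AGS (G12D) and SW620 (G12V) cells plated overnight, then treated with compound for 4 h in 0.5% DMSO. After fixing and methanol permeabilisation, phospho-ERK was detected by in-cell ELISA (HRP/TMB, OD450). IC50 from a 4-parameter sigmoidal fit.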
# [3] = tested on: phosphorylation of ERK, KRAS G12V in SW620; experiment: pERK inhibition assay; type: cell-based; details: Homo sapiens, SW-620, 4 h, SW620 cells
# Procedure, shortened: as §2
# [4] = tested on: phosphorylation of ERK, KRAS G12C in NCI-H358 cells; experiment: pERK inhibition assay; type: cell-based; details: Homo sapiens, NCI-H358, 4 h
# Procedure, shortened: as §2
# Sequence of KRAS G12C-BRAF complex (P01116-2 other isoform, or with tags, fused parts or gaps G12C): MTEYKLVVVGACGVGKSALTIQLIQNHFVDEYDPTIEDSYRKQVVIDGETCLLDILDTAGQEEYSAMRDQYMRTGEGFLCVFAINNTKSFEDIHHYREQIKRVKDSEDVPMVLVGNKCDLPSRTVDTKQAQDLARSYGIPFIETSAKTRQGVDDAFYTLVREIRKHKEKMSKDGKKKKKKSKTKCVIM
# Sequence of KRAS G12C-BRAF complex (P62937 whole entry): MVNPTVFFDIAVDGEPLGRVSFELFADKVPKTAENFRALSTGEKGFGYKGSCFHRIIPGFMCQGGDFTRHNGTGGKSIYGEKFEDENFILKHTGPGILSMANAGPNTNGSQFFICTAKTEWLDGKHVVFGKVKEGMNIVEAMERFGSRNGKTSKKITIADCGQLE
SMILES,IC50 (KRAS G12C-BRAF complex) [nM],IC50 [1] [nM],IC50 (AGS cells (KRAS G12D)) [nM],IC50 (SW620 cells (KRAS G12V)) [nM],IC50 [2] [nM],IC50 [3] [nM],IC50 [4] [nM]
"CO[C@@H](C)c1ncc(N2CCN(CC(F)(F)F)CC2)cc1-c1c2c3cc(cc4c3n1CCO4)-c1csc(n1)C[C@H](NC(=O)[C@H]1C[C@@H]1C)C(=O)N1CCC[C@H](N1)C(=O)OCC(C)(C)C2 (atropisomer, axis not shown; (M)) [Example 5, (1S,2S)-N-[(7S,13S)-(20M)-20-[2-[(1S)-1-methoxyethyl]-5-[4-(2,2,2-trifluoroethyl)piperazin-1-yl]-3-pyridyl]-17,17-dimethyl-8,14-dioxo-15,24-dioxa-4-thia-9,21,30,31-tetrazahexacyclo[23.3.1.1^2,5.1^9,13.0^19,27.0^21,26]hentriaconta-1 (28),2,5 (31), 19,25 (29),26-hexaen-7-yl]-2-methyl-cyclopropanecarboxamide]",34.8,17.3,70,4.6,21.2,2.8,6.2
"CO[C@@H](C)c1ncc(N2CCN(C)CC2)cc1-c1c2c3cc(cc4c3n1CCO4)-c1csc(n1)C[C@H](NC(=O)[C@H]1C[C@@H]1c1cccnc1)C(=O)N1CCC[C@H](N1)C(=O)OCC(C)(C)C2 (atropisomer, axis not shown; (M)) [Example 96, (1S,2S)-N-[(7S,13S)-(20M)-20-[2-[(1S)-1-methoxyethyl]-5-(4-methylpiperazin-1-yl)-3-pyridyl]-17,17-dimethyl-8,14-dioxo-15,24-dioxa-4-thia-9,21,30,31-tetrazahexacyclo[23.3.1.1^2,5.1^9,13.0^19,27.0^21,26]hentriaconta-1 (28),2,5 (31),19,25 (29),26-hexaen-7-yl]-2-(3-pyridyl)cyclopropanecarboxamide]",9.4,1,1.7,0.2,1.2,0.4,0.4
"CO[C@@H](C)c1ncc(N2CCOCC2)cc1-c1c2c3cc(cc4c3n1C[C@@H](O)C4)-c1csc(n1)C[C@H](NC(=O)[C@H]1[C@H](C)[C@@H]1C)C(=O)N1CCC[C@H](N1)C(=O)OCC(C)(C)C2 (atropisomer, axis not shown; (M)) [Example 107, (1r,2R,3S)-N-[(7S,13S,23S)-23-hydroxy-(20M)-20-[2-[(1S)-1-methoxyethyl]-5-morpholino-3-pyridyl]-17,17-dimethyl-8,14-dioxo-15-oxa-4-thia-9,21,30,31-tetrazahexacyclo[23.3.1.1^2,5.1^9,13.0^19,27.0^21,26]hentriaconta-1 (28),2,5 (31),19,25 (29),26-hexaen-7-yl]-2,3-dimethyl-cyclopropanecarboxamide]",47.6,8.4,5.4,1.2,7.4,1.5,2.7
"CO[C@@H](C)c1ncc(N2CCN(C)CC2)cc1-c1c2c3cc(cc4c3n1CCC4)-c1csc(n1)C[C@H](NC(=O)[C@H]1[C@@H]3CC(F)(F)C[C@@H]31)C(=O)N1CCC[C@H](N1)C(=O)OCC(C)(C)C2 (atropisomer, axis not shown; (M)) [Example 48, (1S,5R)-3,3-difluoro-N-[(7S,13S)-(20M)-20-[2-[(1S)-1-methoxyethyl]-5-(4-methylpiperazin-1-yl)-3-pyridyl]-17,17-dimethyl-8,14-dioxo-15-oxa-4-thia-9,21,30,31-tetrazahexacyclo[23.3.1.1^2,5.1^9,13.0^19,27.0^21,26]hentriaconta-1 (28),2,5 (31), 19,25 (29),26-hexaen-7-yl]bicyclo[3.1.0]hexane-6-carboxamide]",4.4,9.5,26.5,1.7,10.1,1,1.2
"CO[C@@H](C)c1ncc(N2CCN(CCC(C)(C)OC)CC2)cc1-c1c2c3cc(cc4c3n1CCC4)-c1csc(n1)C[C@H](NC(=O)[C@H]1[C@H](C)[C@@H]1C)C(=O)N1CCC[C@H](N1)C(=O)OCC(C)(C)C2 (atropisomer, axis not shown; (M)) [Example 123, (1r,2R,3S)-N-[(7S,13S)-(20M)-20-[2-[(1S)-1-methoxyethyl]-5-[4-(3-methoxy-3-methyl-butyl)piperazin-1-yl]-3-pyridyl]-17,17-dimethyl-8,14-dioxo-15-oxa-4-thia-9,21,30,31-tetrazahexacyclo[23.3.1.1^2,5.1^9,13.0^19,27.0^21,26]hentriaconta-1 (28),2,5 (31), 19,25 (29),26-hexaen-7-yl]-2,3-dimethyl-cyclopropanecarboxamide]",13.7,3,5.1,0.6,7.1,0.6,0.8
"CO[C@@H](C)c1ncc(N2CCN(CC(F)(F)F)CC2)cc1-c1c2c3cc(cc4c3n1CCO4)-c1csc(n1)C[C@H](NC(=O)[C@H]1C[C@@H]1C(F)F)C(=O)N1CCC[C@H](N1)C(=O)OCC(C)(C)C2 (atropisomer, axis not shown; (M)) [Example 11, (1S,2S)-2-(difluoromethyl)-N-[(7S,13S)-(20M)-20-[2-[(1S)-1-methoxyethyl]-5-[4-(2,2,2-trifluoroethyl)piperazin-1-yl]-3-pyridyl]-17,17-dimethyl-8,14-dioxo-15,24-dioxa-4-thia-9,21,30,31-tetrazahexacyclo[23.3.1.1^2,5.1^9,13.0^19,27.0^21,26]hentriaconta-1 (28),2,5 (31),19,25 (29),26-hexaen-7-yl]cyclopropanecarboxamide]",12.4,18.8,38.4,2.4,2.9,0.8,5.1
"CO[C@@H](C)c1ncc(N2CCN(CC(F)(F)F)CC2)cc1-c1c2c3cc(cc4c3n1CCC4)-c1csc(n1)C[C@H](NC(=O)[C@H]1[C@@H]3COC[C@@H]31)C(=O)N1CCC[C@H](N1)C(=O)OCC(C)(C)C2 (atropisomer, axis not shown; (M)) [Example 13, (1S,5R,6r)-N-[(7S,13S)-(20M)-20-[2-[(1S)-1-methoxyethyl]-5-[4-(2,2,2-trifluoroethyl)piperazin-1-yl]-3-pyridyl]-17,17-dimethyl-8,14-dioxo-15-oxa-4-thia-9,21,30,31-tetrazahexacyclo[23.3.1.1^2,5.1^9,13.0^19,27.0^21,26]hentriaconta-1 (28),2,5 (31),19,25 (29),26-hexaen-7-yl]-3-oxabicyclo[3.1.0]hexane-6-carboxamide]",1.5,6.4,23,0.7,10.8,1.5,3
"CO[C@@H](C)c1ncc(N2CCN(C)CC2)cc1-c1c2c3cc(cc4c3n1CCO4)-c1csc(n1)C[C@H](NC(=O)[C@@H]1[C@@H]3COC[C@@H]31)C(=O)N1CCC[C@H](N1)C(=O)OCC(C)(C)C2 (atropisomer, axis not shown; (M)) [Example 52, (1R,5S,6s)-N-[(7S,13S)-(20M)-20-[2-[(1S)-1-methoxyethyl]-5-(4-methylpiperazin-1-yl)-3-pyridyl]-17,17-dimethyl-8,14-dioxo-15,24-dioxa-4-thia-9,21,30,31-tetrazahexacyclo[23.3.1.1^2,5.1^9,13.0^19,27.0^21,26]hentriaconta-1 (28),2,5 (31), 19,25 (29),26-hexaen-7-yl]-3-oxabicyclo[3.1.0]hexane-6-carboxamide]",16.1,7,12,1.1,5.1,0.7,1.4
"CO[C@@H](C)c1ncc(N2CCN(CC(F)(F)F)CC2)cc1-c1c2c3cc(cc4c3n1CC(F)(F)C4)-c1csc(n1)C[C@H](NC(=O)[C@H]1[C@H](C)[C@@H]1C)C(=O)N1CCC[C@H](N1)C(=O)OCC(C)(C)C2 (atropisomer, axis not shown; (M)) [Example 87, (1r,2S,3R)-N-[(7S,13S)-23,23-difluoro-(20M)-20-[2-[(1S)-1-methoxyethyl]-5-[4-(2,2,2-trifluoroethyl)piperazin-1-yl]-3-pyridyl]-17,17-dimethyl-8,14-dioxo-15-oxa-4-thia-9,21,30,31-tetrazahexacyclo[23.3.1.1^2,5.1^9,13.0^19,27.0^21,26]hentriaconta-1 (28),2,5 (31),19,25 (29),26-hexaen-7-yl]-2,3-dimethyl-cyclopropanecarboxamide]",32.6,30,58,4,40.6,1.5,4.8

# — US20240417410A1, “TRICYCLIC COMPOUNDS FOR THE TREATMENT OF CANCER” (Hoffmann-La Roche Inc., priority 2023, published 2024)
